Experimental data as given in PubChem BioAssay (NCI).
Values joined by “and” are separate entries in the source; they are usually repeats but may differ in a detail not shown here. Equal values may be shown once.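 Interpolation was linear, between the two tested concentrations surrounding the appropriate level; five concentrations were tested over 48 hours in 96-well plates. GI50 is the concentration that inhibits growth by half. TGI marks complete inhibition of growth.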

Legend:
Test in all cases: inhibition of tumour cell growth, NCI panel, 48 h
HCC-2998 colon = system: HCC-2998 colon
HCT-15 colon = system: HCT-15 colon
HL-60(TB) leukemia = system: HL-60(TB) leukemia
HT29 colon = system: HT29 colon
MOLT-4 leukemia = system: MOLT-4 leukemia
OVCAR-4 ovarian = system: OVCAR-4 ovarian
SF-268 CNS = system: SF-268 CNS
SR leukemia = system: SR leukemia
UACC-257 melanoma = system: UACC-257 melanoma
UACC-62 melanoma = system: UACC-62 melanoma

Compound	GI50 (HCC-2998 colon)	TGI (HCC-2998 colon)	GI50 (HCT-15 colon)	TGI (HCT-15 colon)	GI50 (HL-60(TB) leukemia)	TGI (HL-60(TB) leukemia)	GI50 (HT29 colon)	TGI (HT29 colon)	GI50 (MOLT-4 leukemia)	TGI (MOLT-4 leukemia)	GI50 (OVCAR-4 ovarian)	TGI (OVCAR-4 ovarian)	GI50 (SF-268 CNS)	TGI (SF-268 CNS)	GI50 (SR leukemia)	TGI (SR leukemia)	GI50 (UACC-257 melanoma)	TGI (UACC-257 melanoma)	GI50 (UACC-62 melanoma)	TGI (UACC-62 melanoma)
CCN1CCN(CC(=O)N2c3cccc4cccc(c34)N(C(=O)CN3CCN(CC)CC3)C2c2cn(-c3ccccc3)nc2-c2cccc([N+](=O)[O-])c2)CC1	1.83 µM	3.43 µM	1.46 µM	2.98 µM	1.93 µM	3.85 µM	1.74 µM	3.84 µM	1.69 µM	5.06 µM	1.79 µM	3.71 µM	1.67 µM	3.47 µM	0.267 µM	0.8 µM	1.85 µM	3.68 µM	1.73 µM	3.2 µM
Cc1cc(N2CCOCC2)cc2[nH]c(-c3c(NC[C@@H](O)c4cccc(Cl)c4)cc[nH]c3=O)nc12	1.57 µM	6.15 µM	2.08 µM	31.5 µM	0.0567 µM	2.45 µM	0.0672 µM	1.81 µM	3.14 µM	27.7 µM	4.21 µM	40.4 µM	2.06 µM	7.63 µM	0.295 µM	5.06 µM	0.385 µM	7.37 µM	2.36 µM	12.6 µM
O=C(O)C1CC(O)CN1 (centres undefined)	–	> 100 µM	–	> 100 µM	–	> 100 µM	–	> 100 µM	–	> 100 µM	–	> 100 µM	–	> 100 µM	–	> 100 µM	–	> 100 µM	–	> 100 µM
Cc1cc(C)cc(NC(N)=S)c1	–	> 100 µM	–	38.4 µM	–	> 100 µM	–	> 100 µM	–	> 100 µM	–	> 100 µM	–	> 100 µM	–	> 100 µM	–	> 100 µM	–	> 100 µM
Cc1cc(Cl)ccc1NC(=O)CC1SC(=Nc2ccccc2Cl)NC1=O (centres undefined)	–	> 100 µM	–	> 100 µM	–	40.4 µM	–	> 100 µM	–	> 100 µM	–	> 100 µM	–	> 100 µM	–	70.2 µM	–	> 100 µM	–	> 100 µM
Cc1cccc(NC(=O)c2cccc([N+](=O)[O-])c2O)c1C	–	> 100 µM	–	> 100 µM	–	22.1 µM	–	> 100 µM	–	> 92.7 µM	–	> 100 µM	–	> 100 µM	–	> 100 µM	–	> 79.3 µM	–	> 100 µM
Cc1ccc(O)c(NC(=O)c2ccc(CNc3ccnc(C(F)(F)F)c3)cc2)c1	7.45 µM	23.2 µM	5.19 µM	76.3 µM	1.21 µM	14.8 µM	23.1 µM	> 100 µM	1.77 µM	20.6 µM	26.7 µM	> 100 µM	10.8 µM	38 µM	5.1 µM	30 µM	12.2 µM	48.5 µM	1.07 µM	13.4 µM
COc1cc(Nc2ncc(F)c(Nc3ccc4c(n3)N(COP(=O)(O)O)C(=O)C(C)(C)O4)n2)cc(OC)c1OC	16.4 µM	> 100 µM	2.45 µM and 3.22 µM	> 100 µM	4.19 µM and 6.05 µM	32.6 µM and > 10 µM	1.66 µM	10.7 µM and > 10 µM	3.54 µM and 3.05 µM	> 62 µM	1.69 µM and 1.74 µM	6.31 µM and 6.78 µM	1.45 µM and 1.04 µM	5.22 µM and 3.73 µM	2.93 µM and 2.97 µM	> 36.5 µM	10.6 µM and 5.57 µM	> 90.7 µM	2.1 µM and 1.64 µM	12 µM and > 10 µM
O=C(/C=C/c1ccc(C(F)(F)F)cc1)c1ccc(Nc2nc(NCCO)nc(Nc3ccc(Cl)cc3)n2)cc1	2.93 µM	8.17 µM	2.08 µM	5.92 µM	12.2 µM	51.8 µM	2.32 µM	6.37 µM	3.56 µM	12.6 µM	4.14 µM	15.5 µM	5.05 µM	18.7 µM	1.95 µM	8.74 µM	10.1 µM	31.2 µM	6.32 µM	19.5 µM
Cc1ncc(C(=O)Nc2ccc(CN3CCN(C)CC3)c(C(F)(F)F)c2)cc1C#Cc1cnc(N)cc1C#N	1.11 µM	3.39 µM	0.548 µM	2.71 µM	0.481 µM	2.85 µM	0.0481 µM	2.38 µM	0.336 µM	3.16 µM	0.144 µM	2.64 µM	0.605 µM	3.33 µM	0.406 µM	6.27 µM	0.288 µM	3.12 µM	0.0518 µM	0.645 µM
CCN(CC)c1ccc(C(=O)c2ccc(N(CC)CC)cc2)cc1	1.26 µM	35.4 µM	0.412 µM	36.1 µM	0.407 µM	2.5 µM	0.359 µM	3.78 µM	0.718 µM	19.8 µM	2.14 µM	> 100 µM	0.666 µM	> 35.9 µM	0.127 µM	> 100 µM	0.461 µM	> 59.2 µM	0.429 µM	> 100 µM
Cc1cnc(C(=O)NNc2nc3sc4c(c3c(=O)n2C)C(C)CCC4)cn1 (centres undefined)	0.529 µM	6.22 µM	0.268 µM	11.8 µM	0.269 µM	0.765 µM	0.788 µM	6.19 µM	0.346 µM	–	0.163 µM	2.09 µM	0.28 µM	6.65 µM	0.237 µM	> 100 µM	0.353 µM	4.34 µM	0.346 µM	2.24 µM
Cn1cc(-c2ccc(-c3ccc(C4=NC5(CC5)C(=O)N4C[C@@H]4CCN(C(=O)C5CC5)C4)cc3)cc2)cn1	15.2 µM	29.9 µM	2.71 µM	43 µM	0.0615 µM	25.9 µM	12.5 µM	> 100 µM	4.31 µM	80.8 µM	5.74 µM	> 100 µM	11.9 µM	> 100 µM	1.68 µM	95.3 µM	39.3 µM	> 100 µM	10.2 µM	34.5 µM
COC(=O)Nc1nc2ccc(Br)cc2[nH]1	–	> 100 µM	–	> 100 µM	–	90 µM	–	37.4 µM	–	> 100 µM	–	> 100 µM	–	> 100 µM	–	> 100 µM	–	> 100 µM	–	> 100 µM
